# The supplement of paper PMC11208160
# Experiment: recombinant barcode read abundance after kanamycin selection (control-corrected) (log10(CPM+1)); higher = more efficient recombination; sequences stand for … in AGTGCAGAGAAAATCGGCCAGTTTTCTCTGCCTGCAGTCCGCATGCCGT…AGATTTATGCAGCGGACTGCCTTTCTCCCAAAGTGATAAACCGGACAGTATCATGGACCGGTTTTCCCGGTAATCCGTATTTGCAAGGTTGGTTTCACT; site = the 11-nt target
# Method in brief: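 Targets were screened in pooled form in E. coli against IS621 bridge RNA target-binding loops. Recombination efficiency is based on barcode counts at recombinant junctions in counts per million, averaged and corrected for the control. Numbers are shown as log10(CPM+1), with duplicate plates on chloramphenicol/ampicillin LB agar (control) or chloramphenicol/ampicillin/kanamycin with 0.1 mM IPTG.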
# 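Further: IS621 recombinase and bridge RNA in Escherichia coli cells.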
row,Sequence,recombinant barcode read abundance (log10)
1,CGCCATCCTTGGGTTCTAACCTGTTGCAT (site CGCCGTCCTAT),0.0349
2,CGCCATCCTTGGGTTCTAACCTGTTGCAT (site CGCCTTCCTAT),0.569
3,CGCCCACCTTGGGTTCTAACCTGTTGCCT (site CGCCCACCTAG),0.0145
4,CGCCCACCTTGGGTTCTAACCTGTTGCCT (site CTCCAACCTAG),0
5,CGCCCTACTTGGGTTCTAACCTGTTGCCT (site CGACCTGCTAG),0.236
6,CGCCCTACTTGGGTTCTAACCTGTTGCCT (site CGCCCTACTAG),0.239
7,CGCCGTCCTTGGGTTCTAACCTGTTGCAT (site CGCCATCCTAT),0.0426
8,CGCCGTCCTTGGGTTCTAACCTGTTGCAT (site CGCCCTCCTAT),0.103
9,CGCCGTCCTTGGGTTCTAACCTGTTGCAT (site CGCCGTCCTAT),0.279
10,CGCCGTCCTTGGGTTCTAACCTGTTGCAT (site CGCCTTCCTAT),0.099
11,CGCCTAGCTTGGGTTCTAACCTGTTGCCT (site CGCCTAGCTAG),0.206
12,CGCCTAGCTTGGGTTCTAACCTGTTGCCT (site CTCCTACCTAG),0.0925
13,CGCCTCCCTTGGGTTCTAACCTGTTGCCT (site CGCCTCACTAG),0.179
14,CGCCTCCCTTGGGTTCTAACCTGTTGCCT (site CGCCTCCCTAG),0.446
15,CGCCTCCCTTGGGTTCTAACCTGTTGCCT (site CGCCTCGCTAG),0
16,CGCCTCCCTTGGGTTCTAACCTGTTGCCT (site CGCCTCTCTAG),0.0882
17,CGCCTCGCTTGGGTTCTAACCTGTTGCCT (site CGCCTCACTAG),0.07
18,CGCCTCGCTTGGGTTCTAACCTGTTGCCT (site CGCCTCCCTAG),0.16
19,CGCCTCGCTTGGGTTCTAACCTGTTGCCT (site CGCCTCGCTAG),0.0366
20,CGCCTCGCTTGGGTTCTAACCTGTTGCCT (site CGCCTCTCTAG),0.259
21,CGCGATCCTTGGGTTCTAACCTGTTGCCT (site CGCGATCCTAG),0.431
22,CGCGATCCTTGGGTTCTAACCTGTTGCCT (site CGCGCTCCTAG),0.0201

row,Sequence,recombinant barcode read abundance (log10)
1,CGCGATCCTTGGGTTCTAACCTGTTGCCT (site CGCGGTCCTAG),0.468
2,CGCGATCCTTGGGTTCTAACCTGTTGCCT (site CGCGTTCCTAG),0.265
3,CGCGCAACTTGGGTTCTAACCTGTTGCCT (site CGCGCAACTAG),0.0454
4,CGCGCAACTTGGGTTCTAACCTGTTGCCT (site CGCGTAACTAG),0.185
5,CGCGGGTCTTGGGTTCTAACCTGTTGCTT (site CGCGAATCTAA),0.236
6,CGCGGGTCTTGGGTTCTAACCTGTTGCTT (site CGCGGGTCTAA),0.88
7,CGCGTTCCTTGGGTTCTAACCTGTTGCCT (site CGCGATCCTAG),0.262
8,CGCGTTCCTTGGGTTCTAACCTGTTGCCT (site CGCGCTCCTAG),0.608
9,CGCGTTCCTTGGGTTCTAACCTGTTGCCT (site CGCGGTCCTAG),0.542
10,CGCGTTCCTTGGGTTCTAACCTGTTGCCT (site CGCGTTCCTAG),0.197
11,CGCTGACCTTGGGTTCTAACCTGTTGCTT (site CGCTGACCTAA),0.0663
12,CGCTGACCTTGGGTTCTAACCTGTTGCTT (site CGCTGCCCTAA),0.208
13,CGCTGACCTTGGGTTCTAACCTGTTGCTT (site CGCTGGCCTAA),0.116
14,CGCTGACCTTGGGTTCTAACCTGTTGCTT (site CGCTGTCCTAA),0.231
15,CGCTGGTCTTGGGTTCTAACCTGTTGCCT (site CGCTAGTCTAG),0.309
16,CGCTGGTCTTGGGTTCTAACCTGTTGCCT (site CGCTCGTCTAG),0.145
17,CGCTGGTCTTGGGTTCTAACCTGTTGCCT (site CGCTGGTCTAG),0.0358
18,CGCTGGTCTTGGGTTCTAACCTGTTGCCT (site CGCTTGTCTAG),0.111
19,CGCTTGTCTTGGGTTCTAACCTGTTGCTT (site CACTTGACTAA),0.0517
20,CGCTTGTCTTGGGTTCTAACCTGTTGCTT (site CGCTTGTCTAA),0.0711
21,CGGAACTCTTGGGTTCTAACCTGTTGCCT (site AGGAACTCTAG),0.274
22,CGGAACTCTTGGGTTCTAACCTGTTGCCT (site CGGAACTCTAG),1.85

row,Sequence,recombinant barcode read abundance (log10)
1,CGGAATCCTTGGGTTCTAACCTGTTGCCT (site CGGAATCCTAA),0.198
2,CGGAATCCTTGGGTTCTAACCTGTTGCCT (site CGGAATCCTAC),0.00785
3,CGGAATCCTTGGGTTCTAACCTGTTGCCT (site CGGAATCCTAG),0.864
4,CGGAATCCTTGGGTTCTAACCTGTTGCCT (site CGGAATCCTAT),0.0895
5,CGGAATTCTTGGGTTCTAACCTGTTGCCT (site CGGAATTCTAG),1.17
6,CGGAATTCTTGGGTTCTAACCTGTTGCCT (site CGTTATTCTAG),0.743
7,CGGACGGCTTGGGTTCTAACCTGTTGCCT (site CGGACGACTAG),0.376
8,CGGACGGCTTGGGTTCTAACCTGTTGCCT (site CGGACGCCTAG),0.285
9,CGGACGGCTTGGGTTCTAACCTGTTGCCT (site CGGACGGCTAG),0.215
10,CGGACGGCTTGGGTTCTAACCTGTTGCCT (site CGGACGTCTAG),0.271
11,CGGACGTCTTGGGTTCTAACCTGTTGCCT (site CGGACGACTAG),0.12
12,CGGACGTCTTGGGTTCTAACCTGTTGCCT (site CGGACGCCTAG),0.0491
13,CGGACGTCTTGGGTTCTAACCTGTTGCCT (site CGGACGGCTAG),0.101
14,CGGACGTCTTGGGTTCTAACCTGTTGCCT (site CGGACGTCTAG),1.45
15,CGGAGCCCTTGGGTTCTAACCTGTTGCAG (site CGGAGCCCTCT),2.06
16,CGGAGCCCTTGGGTTCTAACCTGTTGCAG (site CTGAGCCCTAT),0.143
17,CGGCACACTTGGGTTCTAACCTGTTGCCT (site CGACACACTAG),0.239
18,CGGCACACTTGGGTTCTAACCTGTTGCCT (site CGCCACACTAG),0.0516
19,CGGCACACTTGGGTTCTAACCTGTTGCCT (site CGGCACACTAG),0.761
20,CGGCACACTTGGGTTCTAACCTGTTGCCT (site CGTCACACTAG),0.00935
21,CGGCACACTTGGGTTCTAACCTGTTGCTT (site CGGCACACTAA),0.778
22,CGGCACACTTGGGTTCTAACCTGTTGCTT (site CGGCTCACTTA),0.129

row,Sequence,recombinant barcode read abundance (log10)
1,CGGCGTGCTTGGGTTCTAACCTGTTGCCT (site CAGCGTGCTAG),0.555
2,CGGCGTGCTTGGGTTCTAACCTGTTGCCT (site CCGCGTGCTAG),0.34
3,CGGCGTGCTTGGGTTCTAACCTGTTGCCT (site CGGCGTGCTAG),1.99
4,CGGCGTGCTTGGGTTCTAACCTGTTGCCT (site CTGCGTGCTAG),0.161
5,CGGCTACCTTGGGTTCTAACCTGTTGCGG (site CGGCTACCTCC),1.29
6,CGGCTACCTTGGGTTCTAACCTGTTGCGG (site GACGGCACTAG),0.0111
7,CGGCTGCCTTGGGTTCTAACCTGTTGCGG (site CGGCTGCCTCC),2.57
8,CGGCTGCCTTGGGTTCTAACCTGTTGCGG (site GTATCCGCTTG),0.446
9,CGGCTTCCTTGGGTTCTAACCTGTTGCGT (site CAACTTCCTAC),0.117
10,CGGCTTCCTTGGGTTCTAACCTGTTGCGT (site CGGCTTCCTAC),1.24
11,CGGGACACTTGGGTTCTAACCTGTTGCGG (site CGGAACACTCC),2.07
12,CGGGACACTTGGGTTCTAACCTGTTGCGG (site CGGCACACTCC),0.143
13,CGGGACACTTGGGTTCTAACCTGTTGCGG (site CGGGACACTCC),2.82
14,CGGGACACTTGGGTTCTAACCTGTTGCGG (site CGGTACACTCC),0.867
15,CGGGCTACTTGGGTTCTAACCTGTTGCCA (site CGGGCTACTTG),0.334
16,CGGGCTACTTGGGTTCTAACCTGTTGCCA (site TCCTAATCTAA),0.00664
17,CGGGGAGCTTGGGTTCTAACCTGTTGCCG (site CGGGAAGCTAG),0.427
18,CGGGGAGCTTGGGTTCTAACCTGTTGCCG (site CGGGGAGCTCG),0.761
19,CGGGGCACTTGGGTTCTAACCTGTTGCCT (site CGGGGCACTAG),0.606
20,CGGGGCACTTGGGTTCTAACCTGTTGCCT (site CTGGGCACTAG),0.18
